Calls of active or inactive are those of the source. The rule behind the calls is not given here.
Key:
HepG2 [1] = assay: Induction of apoptosis in human HepG2 cells assessed as fold increase in p53 level by Western blot analysis; assay type: functional
HepG2 [2] = assay: Induction of morphological changes in human HepG2 cells assessed as appearance of hyper chromatic nuclei at IC50 concentration; assay type: functional, cell-based
MCF7 [3] = assay: Induction of morphological changes in human MCF7 cells assessed as appearance of hyper chromatic nuclei at IC50 concentration; assay type: functional, cell-based
MCF7 [4] = assay: Induction of morphological changes in human MCF7 cells assessed as appearance of degenerative features at IC50 concentration; assay type: functional, cell-based
HepG2 [5] = assay: Cell cycle arrest in human HepG2 cells assessed as accumulation of cells at G2/M phase at IC50 concentration incubated for 48 hrs by PI staining based flow cytometric analysis (reference value: 19.4 %); assay type: functional
HepG2 [6] = assay: Cell cycle arrest in human HepG2 cells assessed as accumulation of cells at S phase at IC50 concentration incubated for 48 hrs by PI staining based flow cytometric analysis (reference value: 21.0 %); assay type: functional
MCF7 [7] = assay: Induction of morphological changes in human MCF7 cells assessed as appearance of dense nuclei at IC50 concentration; assay type: functional, cell-based
HepG2 [8] = assay: Induction of morphological changes in human HepG2 cells assessed as cell enlargement with vacuolated cytoplasm at IC50 concentration; assay type: functional, cell-based
U2OS [9] = assay: Antiproliferative activity against human U2OS cells assessed as inhibition of cell growth; assay type: functional, cell-based
HepG2 [10] = assay: Induction of morphological changes in human HepG2 cells assessed as cell detachment at IC50 concentration; assay type: functional, cell-based
HepG2 [11] = assay: Antiproliferative activity against human HepG2 cells assessed as inhibition of cell growth; assay type: functional, cell-based
U2OS [12] = assay: Induction of morphological changes in human U2OS cells assessed as appearance of degenerative features at IC50 concentration; assay type: functional, cell-based
U2OS [13] = assay: Induction of morphological changes in human U2OS cells assessed as cell enlargement with vacuolated cytoplasm at IC50 concentration; assay type: functional, cell-based
U2OS [14] = assay: Induction of morphological changes in human U2OS cells assessed as appearance of hyper chromatic nuclei at IC50 concentration; assay type: functional, cell-based
HepG2 [15] = assay: Induction of morphological changes in human HepG2 cells assessed as appearance of degenerative features at IC50 concentration; assay type: functional, cell-based
HepG2 [16] = assay: Induction of apoptosis in human HepG2 cells assessed as early apoptotic cells at IC50 concentration by annexin V-FITC/7-AAD staining based flow cytometric analysis (reference value: 0.0 %); assay type: functional
MCF7 [17] = assay: Induction of morphological changes in human MCF7 cells assessed as cell detachment at IC50 concentration; assay type: functional, cell-based
HepG2 [18] = assay: Induction of apoptosis in human HepG2 cells assessed as fold increase in p21 level by Western blot analysis; assay type: functional
[19] = Cytotoxicity against human WI-38 cells assessed as inhibition of cell growth; assay type: toxicity, cell-based
MCF7 [20] = assay: Induction of morphological changes in human MCF7 cells assessed as appearance of vesicular nuclei at IC50 concentration; assay type: functional, cell-based
[21] = Inhibition of cell migration in human […] cells at IC50 concentration incubated for 24 hrs relative to control; assay type: functional
HepG2 [22] = assay: Induction of morphological changes in human HepG2 cells assessed as appearance of dense nuclei at IC50 concentration; assay type: functional, cell-based
HepG2 [23] = assay: Induction of apoptosis in human HepG2 cells assessed as apoptotic cells at IC50 concentration by annexin V-FITC/7-AAD staining based flow cytometric analysis (reference value: 0.28 %); assay type: functional
U2OS [24] = assay: Antiproliferative activity against human U2OS cells assessed as change in cell viability at IC50 concentration; assay type: functional, cell-based
HepG2 [25] = assay: Antiproliferative activity against human HepG2 cells assessed as change in cell viability at IC50 concentration; assay type: functional, cell-based
MCF7 [26] = assay: Antiproliferative activity against human MCF7 cells assessed as change in cell viability at IC50 concentration; assay type: functional, cell-based
HepG2 [27] = assay: Induction of apoptosis in human HepG2 cells assessed as late apoptotic cells at IC50 concentration by annexin V-FITC/7-AAD staining based flow cytometric analysis (reference value: 0.0 %); assay type: functional
HepG2 [28] = assay: Inhibition of cell migration in human HepG2 cells assessed as wound confluence at IC50 concentration incubated for 10 hrs by scratch wound assay (reference value: 32.01 +/- 0.67 %); assay type: functional; parameters: scale not given: the % may be the effect or the level left
HepG2 [29] = assay: Induction of apoptosis in human HepG2 cells assessed as viable cells at IC50 concentration by annexin V-FITC/7-AAD staining based flow cytometric analysis (reference value: 99.7 %); assay type: functional
HepG2 [30] = assay: Inhibition of cell migration in human HepG2 cells assessed as wound confluence at IC50 concentration incubated for 4 hrs by scratch wound assay (reference value: 19.38 +/- 0.12 %); assay type: functional; parameters: scale not given: the % may be the effect or the level left
MCF7 [31] = assay: Induction of morphological changes in human MCF7 cells assessed as cell enlargement with vacuolated cytoplasm at IC50 concentration; assay type: functional, cell-based
MCF7 [32] = assay: Antiproliferative activity against human MCF7 cells assessed as inhibition of cell growth; assay type: functional, cell-based
U2OS [33] = assay: Induction of morphological changes in human U2OS cells assessed as appearance of dense nuclei at IC50 concentration; assay type: functional, cell-based
HepG2 [34] = assay: Cell cycle arrest in human HepG2 cells assessed as accumulation of cells at G0/G1 phase at IC50 concentration incubated for 48 hrs by PI staining based flow cytometric analysis (reference value: 58.2 %); assay type: functional
HepG2 [35] = assay: Induction of apoptosis in human HepG2 cells assessed as fold increase in p27 level by Western blot analysis; assay type: functional
U2OS [36] = assay: Induction of morphological changes in human U2OS cells assessed as cell detachment at IC50 concentration; assay type: functional, cell-based
HepG2 [37] = assay: Induction of morphological changes in human HepG2 cells assessed as appearance of vesicular nuclei at IC50 concentration; assay type: functional, cell-based
HepG2 [38] = assay: Inhibition of cell migration in human HepG2 cells assessed as wound confluence at IC50 concentration incubated for 24 hrs by scratch wound assay (reference value: 98.01 +/- 0.14 %); assay type: functional; parameters: scale not given: the % may be the effect or the level left
U2OS [39] = assay: Induction of morphological changes in human U2OS cells assessed as appearance of vesicular nuclei at IC50 concentration; assay type: functional, cell-based
HepG2 [40] = assay: Induction of apoptosis in human HepG2 cells assessed as late apoptotic cells at IC50 concentration by annexin V-FITC/7-AAD staining based flow cytometric analysis (reference value: 0.3 %); assay type: functional

Compound	fold change (FC) (HepG2 [1])	Activity (HepG2 [2])	Activity (MCF7 [3])	Activity (MCF7 [4])	Activity (HepG2 [5]) [%]	Activity (HepG2 [6]) [%]	Activity (MCF7 [7])	Activity (HepG2 [8])	IC50 (U2OS [9]) [nM]	Activity (HepG2 [10])	IC50 (HepG2 [11]) [nM]	Activity (U2OS [12])	Activity (U2OS [13])	Activity (U2OS [14])	Activity (HepG2 [15])	Activity (HepG2 [16]) [%]	Activity (MCF7 [17])	IC50 [19] [nM]	Activity (MCF7 [20])	Activity (HepG2 [22])	other results
N=C(N)c1ccc(-c2ccc(-c3ccc(Cl)cc3)o2)nc1	~2.5	Active	Active	Active	47.1	43.6	Active	Active	1730	Active	1550	Active	Active	Active	Active	54	Active	77000	Active	Active	fold change (FC) (HepG2 [18]): ~3; inhibition (INH) [21]: ~55%; Activity (HepG2 [23]): 70.5%; Activity (U2OS [24]): Active; Activity (HepG2 [25]): Active; Activity (MCF7 [26]): Active; Activity (HepG2 [27]): 0.4%; Activity (HepG2 [28]): 33.72%; Activity (HepG2 [29]): 28.7%; Activity (HepG2 [30]): 14.19%; Activity (MCF7 [31]): Active; IC50 (MCF7 [32]): 1640 nM; Activity (U2OS [33]): Active; Activity (HepG2 [34]): 9.2%; fold change (FC) (HepG2 [35]): ~2.3; Activity (U2OS [36]): Active; Activity (HepG2 [37]): Active; Activity (HepG2 [38]): 46.65%; Activity (U2OS [39]): Active; Activity (HepG2 [40]): 16.9%
N=C(N)c1ccc(-c2ccc(-c3ccc(F)cc3)o2)nc1	~2.5	Active	Active	Active	41.4	39.1	Active	Active	1720	Active	1060	Active	Active	Active	Active	47.4	Active	89000	Active	Active	fold change (FC) (HepG2 [18]): ~5; inhibition (INH) [21]: ~55%; Activity (HepG2 [23]): 59.3%; Activity (U2OS [24]): Active; Activity (HepG2 [25]): Active; Activity (MCF7 [26]): Active; Activity (HepG2 [27]): 0.1%; Activity (HepG2 [28]): 32.89%; Activity (HepG2 [29]): 41.9%; Activity (HepG2 [30]): 14.07%; Activity (MCF7 [31]): Active; IC50 (MCF7 [32]): 1600 nM; Activity (U2OS [33]): Active; Activity (HepG2 [34]): 19.4%; fold change (FC) (HepG2 [35]): ~3.1; Activity (U2OS [36]): Active; Activity (HepG2 [37]): Active; Activity (HepG2 [38]): 42.09%; Activity (U2OS [39]): Active; Activity (HepG2 [40]): 10.6%
N=C(N)c1ccc(-c2ccc(-c3cc(Cl)cc(Cl)c3)o2)nc1	~2.5	Active	Active	Active	20.6	19.1	Active	Active	1810	Active	1870	Active	Active	Active	Active	54	Active	101000	Active	Active	Activity (HepG2 [23]): 66.1%; Activity (U2OS [24]): Active; Activity (HepG2 [25]): Active; Activity (MCF7 [26]): Active; Activity (HepG2 [27]): 0.1%; Activity (HepG2 [28]): 47.49%; Activity (HepG2 [29]): 31.5%; Activity (HepG2 [30]): 14.4%; Activity (MCF7 [31]): Active; IC50 (MCF7 [32]): 1690 nM; Activity (U2OS [33]): Active; Activity (HepG2 [34]): 59.6%; Activity (U2OS [36]): Active; Activity (HepG2 [37]): Active; Activity (HepG2 [38]): 64.83%; Activity (U2OS [39]): Active; Activity (HepG2 [40]): 14.3%

From ChEMBL document CHEMBL5579789, “Azafuramidines as potential anticancer Agents: Pro-apoptotic profile and cell cycle arrest” (Bioorg Med Chem Lett, 2024)
